Data from patent US8697687B2, “Treating diseases mediated by blockade of the epithelial sodium channel with pyrazine-2-carboxamide derivatives” (Novartis AG, priority 2007, dated 2014).
Structures can show the parent of a compound that is named as a salt. Where two headings read alike, the source gives them in different places.

Target: T1, epithelial sodium channel (ENaC) (Homo sapiens, UniProt P37088+P51168+P51170)
T1 construct: host or cells: primary Human Bronchial Epithelial cells (HBECs), air-liquid interface culture
T1 sequence (P37088 1-669): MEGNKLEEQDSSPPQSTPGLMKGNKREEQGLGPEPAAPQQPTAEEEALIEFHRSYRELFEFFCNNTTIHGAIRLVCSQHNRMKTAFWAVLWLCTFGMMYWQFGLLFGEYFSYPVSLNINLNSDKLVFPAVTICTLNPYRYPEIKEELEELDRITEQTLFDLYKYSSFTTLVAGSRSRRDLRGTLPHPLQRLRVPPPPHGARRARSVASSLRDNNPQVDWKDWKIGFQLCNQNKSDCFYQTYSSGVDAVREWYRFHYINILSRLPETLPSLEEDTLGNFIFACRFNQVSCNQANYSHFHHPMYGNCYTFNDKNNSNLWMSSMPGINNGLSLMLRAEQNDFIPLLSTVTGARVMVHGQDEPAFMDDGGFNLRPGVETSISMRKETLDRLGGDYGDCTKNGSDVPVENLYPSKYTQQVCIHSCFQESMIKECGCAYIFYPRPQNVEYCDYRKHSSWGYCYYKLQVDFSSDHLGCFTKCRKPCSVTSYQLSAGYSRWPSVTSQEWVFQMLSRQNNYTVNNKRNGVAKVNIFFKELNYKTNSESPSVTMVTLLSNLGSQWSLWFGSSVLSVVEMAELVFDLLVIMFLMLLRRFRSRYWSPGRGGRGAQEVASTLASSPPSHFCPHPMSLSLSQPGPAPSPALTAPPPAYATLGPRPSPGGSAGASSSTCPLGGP
T1 sequence (P51168 1-640): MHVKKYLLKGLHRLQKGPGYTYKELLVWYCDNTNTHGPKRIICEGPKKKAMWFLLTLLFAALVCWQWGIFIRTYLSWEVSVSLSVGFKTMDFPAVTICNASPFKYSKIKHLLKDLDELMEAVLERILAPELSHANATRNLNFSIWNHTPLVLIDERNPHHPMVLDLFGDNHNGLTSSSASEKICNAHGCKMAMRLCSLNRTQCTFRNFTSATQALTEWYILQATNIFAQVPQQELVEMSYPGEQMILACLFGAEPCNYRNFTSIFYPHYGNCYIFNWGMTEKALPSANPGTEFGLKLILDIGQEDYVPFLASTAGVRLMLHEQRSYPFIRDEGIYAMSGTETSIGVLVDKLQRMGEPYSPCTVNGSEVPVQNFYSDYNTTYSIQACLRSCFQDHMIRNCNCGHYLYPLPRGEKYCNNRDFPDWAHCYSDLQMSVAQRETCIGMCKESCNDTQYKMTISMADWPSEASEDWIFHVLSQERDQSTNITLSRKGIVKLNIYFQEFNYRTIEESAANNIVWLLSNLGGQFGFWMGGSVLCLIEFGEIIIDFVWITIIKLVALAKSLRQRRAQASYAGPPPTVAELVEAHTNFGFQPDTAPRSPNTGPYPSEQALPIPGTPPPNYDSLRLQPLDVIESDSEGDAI
T1 sequence (P51170 1-649): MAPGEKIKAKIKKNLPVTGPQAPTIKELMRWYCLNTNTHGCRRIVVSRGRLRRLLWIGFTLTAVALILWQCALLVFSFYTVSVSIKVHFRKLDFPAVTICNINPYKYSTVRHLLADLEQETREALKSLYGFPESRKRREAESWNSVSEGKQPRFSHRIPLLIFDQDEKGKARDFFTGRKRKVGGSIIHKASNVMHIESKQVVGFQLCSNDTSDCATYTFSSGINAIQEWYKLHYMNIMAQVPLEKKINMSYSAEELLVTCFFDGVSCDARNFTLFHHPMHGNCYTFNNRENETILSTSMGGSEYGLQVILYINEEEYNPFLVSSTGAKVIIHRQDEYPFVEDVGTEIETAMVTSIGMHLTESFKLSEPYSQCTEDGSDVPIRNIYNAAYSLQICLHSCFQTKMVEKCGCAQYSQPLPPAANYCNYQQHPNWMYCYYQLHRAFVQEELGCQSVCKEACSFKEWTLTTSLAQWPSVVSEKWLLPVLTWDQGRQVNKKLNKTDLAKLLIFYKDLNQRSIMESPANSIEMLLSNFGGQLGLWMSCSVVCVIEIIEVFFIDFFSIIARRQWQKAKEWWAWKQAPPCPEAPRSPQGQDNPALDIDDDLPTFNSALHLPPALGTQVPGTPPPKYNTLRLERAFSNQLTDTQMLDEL
Assay: Short circuit current (ISC) measurements in Human Bronchial Epithelial cells, inhibition of amiloride-sensitive ISC
Assay type: cell-based
Description: Compounds of formula (I) and their pharmaceutically acceptable salts, hereinafter referred to alternatively as “agents of the invention”, are useful as pharmaceuticals. In particular, the compounds have good ENaC blocker activity and may be tested in the following assays.
Human Bronchial Epithelial cells (HBECs) (Cambrex) were cultured under air-liquid interface conditions to provide a well differentiated mucociliary phenotype.
HBECs were cultured using a modification of the method described by Gray and colleagues (Gray et al., 1996). Cells were seeded in plastic T-162 flasks and were grown in bronchial epithelial cell growth medium (BEGM; Cambrex) supplemented with bovine pituitary extract (52 μg/mL), hydrocortisone (0.5 μg/mL), human recombinant epidermal growth factor (0.5 ng/mL), epinephrine (0.5 μg/mL), transferrin (10 μg/mL), insulin (5 μg/mL), retinoic acid (0.1 μg/mL), triiodothyronine ([…]), gentamycin (50 μg/mL) and amphotericin B (50 ng/mL). Medium was changed every 48 hours until cells were 90% confluent. Cells were then passaged and seeded (8.25×10^5 cells/insert) on polycarbonate Snapwell inserts (Costar) in differentiation media containing 50% DMEM in BEGM with the same supplements as above but without triiodothyronine and a final retinoic acid concentration of 50 nM (all-trans retinoic acid). Cells were maintained submerged for the first 7 days in culture, after which time they were exposed to an apical air interface for the remainder of the culture period. At this time, media was changed to DMEM:F12 media containing 2% v/v Ultroser G for the remainder of culture. Amphotericin B was removed from all media 3 feeds prior to use in the Using Chambers. Cells were used between days 7 and 21 after establishment of the apical-air interface. At all stages of culture, cells were maintained at 37° C. in 5% CO2 in an air incubator.
Short Circuit Current (ISC) Measurements
Snapwell inserts were mounted in Vertical Diffusion Chambers (Costar) and were bathed with continuously gassed Ringer solution (5% CO2 in O2; pH 7.4) maintained at 37° C. containing (in mM): 120 NaCl, 25 NaHCO3, 3.3 KH2PO4, 0.8 K2HPO4, 1.2 CaCl2, 1.2 MgCl2, and 10 glucose. The solution osmolarity was between 280 and 300 mOsmol/kg H2O for all physiological salt solutions used. Cells were voltage clamped to 0 mV (model EVC4000; WPI). RT was measured by applying a 1- or 2-mV pulse at 30-s intervals and calculating RT by Ohm's law. Data were recorded using a PowerLab workstation (ADInstruments).
Test compounds were prepared as a 10 mM stock solution in DMSO (95%). Serial 3-fold dilutions were freshly prepared in an appropriate vehicle (distilled H2O or Ringers solution). The initial concentration was added to the apical chamber as a 1000× concentrate in 5 μL, resulting in a final 1× concentration the 5 mL volume of the Ussing chamber. Subsequent additions of compound were added in a 3.3 μL volume of the 1000× serially diluted stock solution. At the completion of the concentration-response experiment, amiloride (10 μM) was added into the apical chamber to enable the total amiloride-sensitive current to be measured. An amiloride control IC50 was established at the start of each experiment.
Results are expressed as the mean % inhibition of the amiloride-sensitive ISC. Concentration-response curves were plotted and IC50 values generated using GraphPad Prism 3.02. Cell inserts were typically run in duplicate and the IC50 calculated on the mean % inhibition data.

[1] = inhibition of the amiloride-sensitive ISC, Human Bronchial Epithelial cells (HBECs) at air-liquid interface, compound added to apical chamber, read-out: IC50

SMILES: Nc1nc(N)c(C(=O)/N=C2/NC[C@@H](CCCc3ccc(OCC(=O)N4CCOCC4)cc3)N2)nc1Cl [Example 23, 3,5-Diamino-6-chloro-pyrazine-2-carboxylic acid [(R)-4-{3-[4-(2-morpholin-4-yl-2-oxo-ethoxy)-phenyl]-propyl}-imidazolidin-(2Z)-ylidene]-amide]
- IC50 [1]: 33.5 nM

SMILES: CC(C)(C)OC(=O)COc1ccc(CCC(=O)N2CCC3(CC2)CN/C(=N\C(=O)c2nc(Cl)c(N)nc2N)N3)cc1 [Example 71, [4-(3-{2-[(E)-3,5-Diamino-6-chloro-pyrazine-2-carbonylimino]-1,3,8-triaza-spiro[4.5]dec-8-yl}-3-oxo-propyl)-phenoxy]-acetic acid tert-butyl]
- IC50 [1]: 42 nM

SMILES: Cc1ccc(S(=O)(=O)n2ccc(C(=O)N3CCC4(CC3)CN/C(=N\C(=O)c3nc(Cl)c(N)nc3N)N4)c2)cc1 [Example 147, 3,5-Diamino-6-chloro-pyrazine-2-carboxylic acid [8-[1-(toluene-4-sulfonyl)-1H-pyrrole-3-carbonyl]-1,3,8-triaza-spiro[4.5]dec-(2E)-ylidene]-amide]
- IC50 [1]: 16 nM

SMILES: Cc1[nH]c2ccc(CC(=O)N3CCC4(CC3)CN/C(=N\C(=O)c3nc(Cl)c(N)nc3N)N4)cc2c1C [Example 48, 3,5-Diamino-6-chloro-pyrazine-2-carboxylic acid [8-[2-(2,3-dimethyl-1H-indol-5-yl)-acetyl]-1,3,8-triaza-spiro[4.5]dec-(2E)-ylidene]-amide]
- IC50 [1]: 16.5 nM

SMILES: CC(C)OCCCNS(=O)(=O)c1cccc(C(=O)N2CCC3(CC2)CN/C(=N\C(=O)c2nc(Cl)c(N)nc2N)N3)c1 [Example 41, 3,5-Diamino-6-chloro-pyrazine-2-carboxylic acid [8-[3-(3-isopropoxy-propylsulfamoyl)-benzoyl]-1,3,8-triaza-spiro[4.5]dec-(2E)-ylidene]-amide]
- IC50 [1]: 9.5 nM

SMILES: CC(C)(C)c1ccc(OCCn2ccc3c(C(=O)N4CCC5(CC4)CN/C(=N\C(=O)c4nc(Cl)c(N)nc4N)N5)cccc32)cc1 [Example 86, 3,5-Diamino-6-chloro-pyrazine-2-carboxylic acid [8-{1-[2-(4-tert-butyl-phenoxy)-ethyl]-1H-indole-4-carbonyl}-1,3,8-triaza-spiro[4.5]dec-(2E)-ylidene]-amide]
- IC50: 8 nM

SMILES: Nc1nc(N)c(C(=O)/N=C2/NC[C@H](CCCCNC(=O)OCc3ccccc3)N2)nc1Cl [Example 5, (4-{(S)-2-[(E)-3,5-Diamino-6-chloro-pyrazine-2-carbonylimino]-imidazolidin-4-yl}-butyl)-carbamic acid benzyl ester]
- IC50 [1]: 65 nM

SMILES: Nc1nc(N)c(C(=O)/N=C2\NCC3(CCN(C(=O)c4cn(S(=O)(=O)c5ccccc5)c5ccccc45)CC3)N2)nc1Cl [Example 40, 3,5-Diamino-6-chloro-pyrazine-2-carboxylic acid [8-(1-benzenesulfonyl-1H-indole-3-carbonyl)-1,3,8-triaza-spiro[4.5]dec-(2E)-ylidene]-amide]
- IC50 [1]: 5.5 nM

SMILES: Nc1nc(N)c(C(=O)/N=C2\NCC3(CC4CCC(C3)N4C(=O)c3cccc4[nH]ccc34)N2)nc1Cl (stereo not shown) [Example 252, (E)-N-(8-(1H-indole-4-carbonyl)-8-azaspiro[bicyclo[3.2.1]octane-3,4′-imidazolidine]-2′-ylidene)-3,5-diamino-6-chloropyrazine-2-carboxamide]
- IC50 [1]: 28 nM

SMILES: Nc1nc(N)c(C(=O)/N=C2\NCC3(CCN(C(=O)c4cccc(S(=O)(=O)N5CCC(S(=O)(=O)c6ccccc6)C5)c4)CC3)N2)nc1Cl (stereo not shown) [Example 141, 3,5-Diamino-6-chloro-pyrazine-2-carboxylic acid [8-[3-(3-benzenesulfonyl-pyrrolidine-1-sulfonyl)-benzoyl]-1,3,8-triaza-spiro[4.5]dec-(2E)-ylidene]-amide]
- IC50 [1]: 2 nM

SMILES: Cc1oc(-c2ccccc2)nc1COc1ccc(S(=O)(=O)N2CCC3(CC2)CN/C(=N\C(=O)c2nc(Cl)c(N)nc2N)N3)cc1 [Example 238, 3,5-Diamino-6-chloro-pyrazine-2-carboxylic acid [8-[4-(5-methyl-2-phenyl-oxazol-4-ylmethoxy)-benzenesulfonyl]-1,3,8-triaza-spiro[4.5]dec-(2E)-ylidene]-amide]
- IC50 [1]: 119 nM

SMILES: CC(C)NC(=O)Nc1ccc(C(=O)N2CCC3(CC2)CN/C(=N\C(=O)c2nc(Cl)c(N)nc2N)N3)cn1 [Example 65, 3,5-Diamino-6-chloro-pyrazine-2-carboxylic acid [8-[6-(3-isopropyl-ureido)-pyridine-3-carbonyl]-1,3,8-triaza-spiro[4.5]dec-(2E)-ylidene]-amide]
- IC50 [1]: 39.5 nM

SMILES: Nc1nc(N)c(C(=O)/N=C2\NCC3(CCN(C(=O)CCc4nc(-c5ccc(Cl)cc5)no4)CC3)N2)nc1Cl [Example 146, 3,5-Diamino-6-chloro-pyrazine-2-carboxylic acid [8-{3-[3-(4-chlorophenyl)-[1,2,4]oxadiazol-5-yl]-propionyl}-1,3,8-triaza-spiro[4.5]dec-(2E)-ylidene-amide trifluoroacetate]
- IC50 [1]: 6 nM
